Values of other authors in article PMC9056484 (Advances in Therapy, 2022).
pKi: −log10 of the molar value. Where two headings read alike, the source gives them in different places.

Key:
[1] = tested on: Parkinson's disease patients; conditions: pramipexole monotherapy
[2] = tested on: early Parkinson's disease patients
early PD patients [3] = conditions: higher doses of pramipexole in early PD
[4] = tested on: early Parkinson disease patients
dopamine D3 receptor = conditions: read-out: Ki, D3 receptor
[5] = not given; remark: listed apart in the source
early PD patients [6] = tested on: early PD patients
[7] = tested on: early Parkinson's disease patients; conditions: pramipexole 1.5 mg/day, 9 months
[8] = not given; remark: listed apart in the source
[9] = tested on: Parkinson's disease patients; conditions: for effects on clinical progression (in words): delayed-start design trial
[10] = tested on: early Parkinson disease patients; conditions: rasagiline 1 mg/day, Week 26
human albumin = conditions: concentration range 1–100 ng/ml
[11] = Pramipexole 0.5 mg BID, n = 81, PRAMI-BID
[12] = Pramipexole 0.5 mg TID, n = 80, PRAMI-BID
[13] = Pramipexole 0.75 mg BID, n = 73, PRAMI-BID
[14] = Pramipexole 1.5 mg, n = 54, STEP-UP
[15] = Pramipexole groups combined (1.5–6 mg), N = 213, STEP-UP

For `NC1CCc2ccccc21` (centres unmarked) [1-aminoindan], the “MAO-B inhibition (in words)” value (MAO-B) is listed as “weak MAO-B inhibitor”.

In the case of `CCCN[C@H]1CCc2nc(N)sc2C1` [Pramipexole], the “disease-modifying effect (in words)” value [1] is given as “did not find evidence of a disease-modifying effect”, the “Adverse event: Abnormal dreams” value [2, 11] is given as 3 (3.7) and the “Adverse event: Constipation” value [2, 11] is given as 8 (9.9). For the same molecule, the “Adverse event: Dizziness” value [2, 11] was 9 (11.1), the “Adverse event: Fatigue” value [2, 11] was 6 (7.4) and the “Adverse event: Headache” value [2, 11] was 7 (8.6). For the same molecule, the “Adverse event: Insomnia” value [2, 11] was 3 (3.7), the “Adverse event: Nausea” value [2, 11] was 18 (22.2) and the “Adverse event: Peripheral edema” value [2, 11] was 2 (2.5). The “Adverse event: Somnolence” value [2, 11] was 14 (17.3), the “Adverse event: Abnormal dreams” value [2, 12] was 5 (6.3) and the “Adverse event: Constipation” value [2, 12] was 5 (6.3). For the same molecule, the “Adverse event: Dizziness” value [2, 12] was 9 (11.3), the “Adverse event: Fatigue” value [2, 12] was 4 (5.0) and the “Adverse event: Headache” value [2, 12] was 4 (5.0). For the same molecule, the “Adverse event: Insomnia” value [2, 12] was 6 (7.5), the “Adverse event: Nausea” value [2, 12] was 15 (18.8) and the “Adverse event: Peripheral edema” value [2, 12] was 3 (3.8). The “Adverse event: Somnolence” value [2, 12] was 20 (25.0), the “Adverse event: Abnormal dreams” value [2, 13] was 2 (2.7) and the “Adverse event: Constipation” value [2, 13] was 7 (9.6). The “Adverse event: Dizziness” value [2, 13] was 5 (6.8), the “Adverse event: Fatigue” value [2, 13] was 7 (9.6) and the “Adverse event: Headache” value [2, 13] was 6 (8.2). The “Adverse event: Insomnia” value [2, 13] was 11 (15.1), the “Adverse event: Nausea” value [2, 13] was 11 (15.1) and the “Adverse event: Peripheral edema” value [2, 13] was 4 (5.5). The “Adverse event: Somnolence” value [2, 13] was 16 (21.9), the “Effects on PDQ-39 Total scores versus placebo (in words)” value ([2]; pramipexole 1.0 mg/day (0.5 mg BID), P = 0.32) was “not significantly different from placebo” and the “PDQ-39 Total scores, treatment effect vs. placebo” value ([2]; pramipexole 1.5 mg/day (0.75 mg BID or 0.5 mg TID), P ≤ 0.05) was 2.1 points. The “placebo-adjusted improvements in Total UPDRS” value ([2]; pramipexole 1–1.5 mg/day, Week 12) was 4.4–4.7 points, the protein bound was < 20% and the “placebo-adjusted changes from baseline in ESS score” value (early PD patients [3]) was 1.0–2.1. The “Adverse event: Confusion” value [4, 14] was 3 (5.6), the “Adverse event: Constipation” value [4, 14] was 4 (7.4) and the “Adverse event: Dizziness” value [4, 14] was 10 (18.5). For the same molecule, the “Adverse event: Fatigue” value [4, 14] was 4 (7.4), the “Adverse event: Hallucination” value [4, 14] was 4 (7.4) and the “Adverse event: Headache” value [4, 14] was 5 (9.2). For the same molecule, the “Adverse event: Insomnia” value [4, 14] was 2 (3.7), the “Adverse event: Nausea” value [4, 14] was 9 (16.7) and the “Adverse event: Somnolence” value [4, 14] was 9 (16.7). The “Adverse event: Confusion” value [4, 15] was 9 (4.2), the “Adverse event: Constipation” value [4, 15] was 23 (10.8) and the “Adverse event: Dizziness” value [4, 15] was 39 (18.3). For the same molecule, the “Adverse event: Hallucination” value [4, 15] was 14 (6.6), the “Adverse event: Headache” value [4, 15] was 24 (11.3) and the “Adverse event: Insomnia” value [4, 15] was 16 (7.5). For the same molecule, the “Adverse event: Nausea” value [4, 15] was 42 (19.7), the “Adverse event: Somnolence” value [4, 15] was 58 (27.2) and the patients with hallucinations ([4]; pramipexole 1.5 mg, within 10 weeks) was > 5%. For the same molecule, the “improvement of Total UPDRS scores versus placebo” value ([4]; pramipexole 1.5 mg/day, Week 10) was 5.2 points, the pKi (dopamine D3 receptor) was 9.30 and the absolute oral bioavailability [5] was > 90%. The “absorbed dose eliminated unchanged” value ([5]; almost exclusively by the kidneys) was > 90%, the incidence of somnolence (early PD patients [6]; pramipexole pivotal studies in early PD) was 22% and the patients with hallucinations (early PD patients [6]; pramipexole up to 4.5 mg/day, early PD pivotal trials) was 16.5%. For the same molecule, the “improvement of Total UPDRS scores versus placebo” value [7] was 4.8 points and the “affinity for D1 receptors, times lower than that to D3 receptors” value (D1 receptors) was “around 200,000 times”.

For `C#CCN[C@@H]1CCc2ccccc21` [Rasagiline, N-propargyl-1-(R)-aminoindan], the “MAO-B inhibition (in words)” value (MAO-B) is listed as “potent and irreversible inhibitor of MAO-B”, the absolute bioavailability [8] is listed as “about 36%” and the “time to peak plasma concentration (Cmax)” value [8] is listed as “approximately 1 hour”. The “effects on clinical progression (in words)” value ([9]; rasagiline 1.0 mg) was “statistically significant effects on clinical progression”, the “improvement of Total UPDRS scores versus placebo” value ([9]; rasagiline 1 mg/day, ~ Week 36) was 3.0 points and the “effects on clinical progression (in words)” value ([9]; rasagiline 2.0 mg) was “but not 2.0 mg, had statistically significant effects”. For the same molecule, the “improvement of Total UPDRS scores versus placebo” value [10] was 4.2 points and the “mean extent of binding to human albumin” value (human albumin) was 61–63%.
